The target in this assay is T1, MbRIP1 (type 1 ribosome inactivating protein from Momordica balsamina) (Momordica balsamina, UniProt D9J2T9).
T1 sequence (D9J2T9 1-246): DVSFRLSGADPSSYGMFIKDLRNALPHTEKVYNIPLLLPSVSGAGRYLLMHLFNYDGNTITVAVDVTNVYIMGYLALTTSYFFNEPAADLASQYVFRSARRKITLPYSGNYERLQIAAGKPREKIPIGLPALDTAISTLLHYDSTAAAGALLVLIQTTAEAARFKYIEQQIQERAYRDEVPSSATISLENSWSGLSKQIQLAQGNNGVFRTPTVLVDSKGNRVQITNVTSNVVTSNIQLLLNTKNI
Put plainly: Binding studies using fluorescence.

What is called Kd is a measure of binding affinity in units of concentration. High values mean a looser complex, low ones a tighter complex. In turn, `Nc1ccn([C@@H]2O[C@H](CO)[C@@H](O)[C@H]2O)c(=O)n1` [CYT, cytidine] gave a Kd of about 5 µM. In turn, `Nc1cc[nH]c(=O)n1` [CYS, cytosine] showed a Kd of about 230 µM.
